Key:
Assay type in all cases: functional, organism-based
Mus musculus [1] = species: Mus musculus; assay: Compound was evaluated for inhibitory activity against production of nitric oxide (NO) induced by interferon-gamma (IFN-gamma) in mouse macrophages at a concentration of 0.01-40 uM
Mus musculus [2] = species: Mus musculus; assay: Compound was evaluated for inhibitory activity against production of nitric oxide (NO) induced by interferon-gamma (IFN-gamma) in mouse macrophages at a concentration of 0.01-40 uM; Toxic above 1 uM and not active below 1 uM
Mus musculus [3] = species: Mus musculus; assay: Compound was evaluated for inhibitory activity against production of nitric oxide (NO) induced by interferon-gamma (IFN-gamma) in mouse macrophages at a concentration of 0.1-1 uM
Mus musculus [4] = species: Mus musculus; assay: Compound was evaluated for inhibitory activity against production of nitric oxide (NO) induced by interferon-gamma (IFN-gamma) in mouse macrophages

Row | SMILES | IC50 (Mus musculus [1]) [nM] | other results
1 | CC1(C)CC[C@]2(C(=O)O)CC[C@]3(C)[C@H](C(=O)C=C4[C@@]5(C)C=CC(=O)C(C)(C)[C@@H]5CC[C@]43C)[C@@H]2C1 | 170 | –
2 | CC1(C)CC[C@]2(C(=O)O)CC[C@]3(C)C(=CC[C@@H]4[C@@]5(C)C=C(C=O)C(=O)C(C)(C)[C@@H]5CC[C@]43C)C2C1 (stereo not given in full) | – | IC50 (Mus musculus [2]): > 1000 nM
3 | CC1(C)CC[C@]2(C(=O)O)CC[C@]3(C)C(=CC[C@@H]4[C@@]5(C)C=C(O)C(=O)C(C)(C)[C@@H]5CC[C@]43C)C2C1 (stereo not given in full) | 37000 | –
4 | CC1(C)CC[C@]2(C(=O)O)CC[C@]3(C)C(=CC(=O)[C@@H]4[C@@]5(C)C=CC(=O)C(C)(C)[C@@H]5CC[C@]43C)C2C1 (stereo not given in full) | 1400 | –
5 | CC1(C)CC[C@]2(C(=O)O)CC[C@]3(C)C(=CC[C@@H]4[C@@]5(C)C=CC(=O)C(C)(C)[C@@H]5CC[C@]43C)C2C1 (stereo not given in full) | 7100 | –
6 | COC1=C[C@]2(C)[C@H]3CC=C4C5CC(C)(C)CC[C@]5(C(=O)O)CC[C@@]4(C)[C@]3(C)CC[C@H]2C(C)(C)C1=O (stereo not given in full) | 19000 | –
7 | CC1(C)CC[C@]2(C(=O)O)CC[C@]3(C)C(=CC[C@@H]4[C@@]5(C)C=C(C#N)C(=O)C(C)(C)[C@@H]5CC[C@]43C)C2C1 (stereo not given in full) | 600 | –
8 | CC1(C)CC[C@]2(C(=O)O)CC[C@]3(C)[C@H](C(=O)C=C4[C@@]5(C)C=C(C#N)C(=O)C(C)(C)[C@@H]5CC[C@]43C)[C@@H]2C1 [BARDOXOLONE] | – | IC50 (Mus musculus [3]): 0.4 nM
9 | C[C@@H]1C[C@H]2[C@@H]3CCC4=CC(=O)C=C[C@]4(C)[C@@]3(F)[C@@H](O)C[C@]2(C)[C@@]1(O)C(=O)CO [DEXAMETHASONE] | – | IC50 (Mus musculus [4]): 0.3 nM
10 | CC1(C)CC[C@]2(C(=O)O)CC[C@]3(C)C(=CC[C@@H]4[C@@]5(C)CC[C@H](O)C(C)(C)[C@@H]5CC[C@]43C)[C@@H]2C1 [OLEANOLIC_ACID] | – | IC50 (Mus musculus [4]): > 40000 nM

Source: ChEMBL document CHEMBL1130601, “Design and synthesis of 2-cyano-3,12-dioxoolean-1,9-dien-28-oic acid, a novel and highly active inhibitor of nitric oxide production in mouse macrophages” (Bioorg Med Chem Lett, 1998)
